Laboratory results published in US10918716B2, “Triple combination therapy for treating Crohn's disease” (Millennium Pharmaceuticals, Inc., priority 2016, dated 2021).

Assays:
[1] = molecular target: T1, lymphotoxin (TNF-β) (Homo sapiens, UniProt P01374); conditions: cited from earlier work
T1 sequence (P01374 35-205): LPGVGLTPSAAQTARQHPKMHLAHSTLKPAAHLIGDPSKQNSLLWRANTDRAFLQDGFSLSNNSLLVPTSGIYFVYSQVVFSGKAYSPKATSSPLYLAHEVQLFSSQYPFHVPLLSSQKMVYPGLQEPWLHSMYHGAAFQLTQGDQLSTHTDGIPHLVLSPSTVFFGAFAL

[2] = tested on: patients with CD; conditions: cited from earlier work
[3] = multiple-dose pharmacokinetics of vedolizumab, IV infusion, patients with UC; assay type: in vivo, human; conditions: dose range 2 to 10 mg/kg
Method: (§1) In previous studies, single-dose pharmacokinetics, pharmacodynamics (α4β7 receptor saturation), safety, and tolerability of vedolizumab were investigated over a dose range of 0.2 to 10 mg/kg in healthy volunteers (intravenous [IV] infusion) (unpublished data). After reaching peak concentrations, vedolizumab serum concentrations fell in a generally biexponential fashion until concentrations reached approximately 1 to 10 ng/mL. Thereafter, concentrations appeared to fall in a nonlinear fashion. The multiple-dose pharmacokinetics and pharmacodynamics of vedolizumab have been investigated following IV infusions of 0.5 and 2 mg/kg in patients with CD and infusion of 2, 6, and 10 mg/kg in patients with UC.

[4] = molecular target: T2, α4β7 receptor (Homo sapiens, UniProt P13612+P26010); assay: pharmacodynamics (α4β7 receptor saturation) after multiple-dose administration; assay type: in vivo; conditions: following the initial dose
T2 construct: endogenous in cells; host or cells: lymphocytes of patients with CD or UC (in vivo)
Method: as §1

Row | Substance | binding or inactivation of lymphotoxin (TNF-β) [1] | maintaining clinical remission ([2]; 40 mg weekly or every other week, patients with CD who responded to adalimumab induction therapy) | corticosteroid-sparing effects ([2]; patients with CD) | pharmacokinetics dose linearity [3] | α4β7 receptor saturation [4]
1 | Adalimumab | does not bind or inactivate | effective | corticosteroid-sparing effects |  | 
2 | vedolizumab: humanized antibody (Ig) G1 mAb directed against the human lymphocyte integrin α4β7; CAS 943609-66-3 |  |  |  | generally linear | rapid and near complete
